Measured values reported in patent US20240374738A1, “BIFUNCTIONAL COMPOUND CAPABLE OF DEGRADING RECEPTOR TYROSINE KINASE AND APPLICATION THEREOF” (TAIBIDI PHARMACEUTICAL TECHNOLOGY (SHIJIAZHUANG) CO., LTD., priority 2023, published 2024).

Legend:
Type in all cases: cell-based
DDR1 = DDR1 (Homo sapiens, UniProt Q08345); assay: Degradation of DDR1 in tumor cell MKN45 (Western blot); set-up: The degradation activity of the compounds against DDR1 in the MKN45 cell line; endogenous in cells; host or cells: MKN45; conditions: MKN-45, maximum degradation percentage, MKN45 cells, 24 hours
Experimental: Western blot experiment: Take gastric cancer cells (MKN45) and inoculate them into a 6-well plate at a concentration of […], adding 2 ml to each well and incubating for 24 hours.
The next day, observe the cells under a microscope to confirm their status. Prepare compounds, weigh a certain amount of the series compounds or reference drug cabozantinib from this patent, first prepare a high concentration mother liquor with pure DMSO, and use gradient dilution method to prepare compound concentrations of 2 mM, 200 μM, 100 μM, 20 μM, 2 μM, 200 nM, and 0 nM. The final concentration of DMSO is 0.5%. Shake to thoroughly mix. Add 10 μl of solution to each well. After incubation for 24 hours, remove the cells and use a pipette to aspirate the suspended cells into a 1.5 ml centrifuge tube. Centrifuge at 5000 rpm for 10 minutes to precipitate the cells. Carefully remove the cell precipitate from the culture medium, add 1 ml of PBS and shake slightly. After repeated cleaning for 3 times, dry the residue. Add 150 μl of RIPA lysate pre mixed with 1% PMSF, blow to allow the lysate to fully contact the cells, and incubate on ice for 10 minutes. Centrifuge at 12000 rpm for 10 minutes, extract the supernatant, use the BCA protein quantification kit to determine and homogenize the sample loading.
Mix BCA-A in a 50:1 ratio Prepare working solution with B solution, dilute the sample by 5 times, then pipette 20 μl onto a 96 well ELISA plate. Add 200 μl of pre mixed BCA working solution and incubate at 37° C. for 20 minutes. Measure the A562 nm absorbance value using an ELISA reader and substitute it into the protein standard curve formula to obtain the sample concentration. After calculating the required volume for loading […] of sample, divide the sample into 1.5 ml centrifuge tubes. Add 10 μl of sample buffer to each tube and mix well. Heat in a 95° C. metal bath for 5 minutes to denature the protein.
Take 4-20% gradient pre adhesive and fix it on the adhesive rack. Add electrophoresis solution to the slot and remove the comb, Marker and protein samples were loaded, and after 30 minutes of electrophoresis at 80V, the voltage was adjusted to 120V for electrophoresis, The marker band stops electrophoresis at the forefront of the gel. Take out the adhesive block and cut it to the appropriate size, The PVDF membrane was cut and activated in methanol, and after activation, the PVDF membrane was equilibrated in a membrane transfer equilibrium solution for 1 minute. Using sponge pads The sequence of PVDF film, adhesive, and sponge pad is placed in the splint and placed in the eBlot equipment for rapid wet rotation. Remove the membrane and seal it in 5% skim milk powder dissolved in 1×TBST for 1 hour. Cut the membrane according to the molecular weight of the target protein and internal reference protein, and place it in primary antibody diluted with 1×TBST. Shake overnight at 4° C.
The next day, transfer the band to 1×TBST for 3 washes, then add a specific dilution of the secondary antibody and shake it for 1.5 hours. Transfer the band again to 1×TBST for 3 washes, prepare ECL color solution, place the membrane in the imaging system, cover the surface with ECL color solution, and take photos of the membrane using the imaging system.
Using the SHST analysis system to analyze the results, measure the grayscale values of each band of the target protein and internal reference protein. Normalize the grayscale values of the target protein/corresponding lane GAPDH grayscale values, and perform quantitative analysis according to the protein amount=experimental group grayscale value/blank control group grayscale value.
The activity of the compound of the present invention in degrading DDR in tumor cell line MKN45 was measured. […]

SNU5 = assay: Growth inhibition of gastric cancer cells SNU5 (CCK-8); conditions: Homo sapiens, SNU-5, half inhibitory concentration, 72 hours
Experimental: (§1) Inoculate gastric cancer cells (SNU5 or MKN45) into a 96 well plate at a concentration of […], with 100 μl added to each well. Incubate for 30 minutes. Observe the cell status under a microscope. Prepare compounds, weigh a certain amount of the series compounds or reference drug cabozantinib of this patent, first prepare a high concentration mother liquor with pure DMSO, and use gradient dilution method to prepare a concentration of 200 μM, 60 μM, 20 μM, 6 μM, 2 μM, 600 nM, 200 nM, 0 nM drug solution, shake to make it fully mixed. The control group was prepared with cabozantinib using the same solvent and method.
(§2) After preparation, add 1 μl of drug solution to each well of the 96 well plate, and then add 100 μl of culture medium. Repeat each dose three times. Gently shake to allow the cells and medication to come into full contact and incubate in the incubator for 72 hours. 72 hours later, remove and color with CCK-8 reagent kit. Add 20 μl of CCK-8 reagent to each well, gently shake well, and incubate in the incubator for 1 hour. After 1 hour, remove and measure the absorbance of each well using an enzyme-linked immunosorbent assay (ELISA) reader at a wavelength of 450 nm.
(§3) According to the formula: Cell growth inhibition rate=[1−(absorbance of experimental group absorbance of culture medium control group)/(absorbance of blank control group−absorbance of culture medium control group)]×100%. It can be concluded that the compound has the ability to inhibit the growth of gastric cancer cells at the current dose and time.
(§4) Draw a graph based on the gradient of concentration and use GraphPad Prism 9 software (GraphPad Software, La Jolla, CA) to calculate the maximum inhibitory concentration (IC50) at 50%.
(§5) Referring to steps 1 and 2 of this embodiment, the inhibitory effect of the compound of the present invention on the growth of cancer cells and the degradation effect of target proteins were measured, and the following results were obtained (see Table 2 below).
(§6) The growth inhibitory effects of the compound of the present invention on tumor cell lines MKN45 and SNU5 were measured. The activity is expressed as half inhibitory concentration (C50). The results are shown in Table 2 below; When the half inhibitory concentration is less than or equal to 100 nM, the compound activity is labeled as “++++”; When the half inhibitory concentration is greater than 100 nM and less than 500 nM, the compound activity is labeled as […] and less than 1000 nM, the compound activity is labeled as “++”; When the half inhibitory concentration is greater than 1000 nM and less than 3000 nM, the compound activity is marked as “+”; When the half inhibitory concentration is greater than 3000 nM, the compound activity is marked as […]

MKN45 = assay: Growth inhibition of gastric cancer cells MKN45 (CCK-8); conditions: Homo sapiens, MKN-45, half inhibitory concentration, 72 hours
Experimental: as §1, §2, §3, §4, §5, §6

DDR1, sequence (Q08345 19-913): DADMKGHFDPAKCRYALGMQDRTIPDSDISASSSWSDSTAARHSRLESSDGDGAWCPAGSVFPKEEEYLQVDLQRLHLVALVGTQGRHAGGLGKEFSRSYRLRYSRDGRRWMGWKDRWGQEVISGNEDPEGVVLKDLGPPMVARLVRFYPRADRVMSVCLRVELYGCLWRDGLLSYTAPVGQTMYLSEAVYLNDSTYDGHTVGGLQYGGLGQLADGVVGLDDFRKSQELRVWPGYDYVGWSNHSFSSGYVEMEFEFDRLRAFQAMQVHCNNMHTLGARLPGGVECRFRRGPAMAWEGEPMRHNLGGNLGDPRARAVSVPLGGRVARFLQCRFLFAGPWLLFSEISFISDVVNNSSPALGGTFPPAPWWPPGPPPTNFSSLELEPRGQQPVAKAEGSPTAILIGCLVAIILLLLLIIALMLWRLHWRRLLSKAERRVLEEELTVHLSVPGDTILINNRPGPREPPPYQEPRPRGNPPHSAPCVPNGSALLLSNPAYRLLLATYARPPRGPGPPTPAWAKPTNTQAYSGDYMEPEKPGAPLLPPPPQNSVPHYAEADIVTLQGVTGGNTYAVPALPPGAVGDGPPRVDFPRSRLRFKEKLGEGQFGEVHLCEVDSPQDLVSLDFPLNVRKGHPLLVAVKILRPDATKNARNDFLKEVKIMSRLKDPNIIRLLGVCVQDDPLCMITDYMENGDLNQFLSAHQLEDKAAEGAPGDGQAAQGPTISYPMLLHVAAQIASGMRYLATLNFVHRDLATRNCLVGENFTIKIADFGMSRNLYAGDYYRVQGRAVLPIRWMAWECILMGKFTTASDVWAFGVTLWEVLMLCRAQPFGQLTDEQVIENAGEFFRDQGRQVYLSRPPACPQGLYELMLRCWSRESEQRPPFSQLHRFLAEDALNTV

Row | Dmax (DDR1) [%] | IC50 (SNU5) [nM] | IC50 (MKN45) [nM] | Structure (SMILES)
1 | 65 to 75 | 100 to 500 | 100 to 500 | COc1cc2c(Oc3ccc(NC(=O)C4(C(=O)Nc5ccc(F)cc5)CC4)cc3)ccnc2cc1N1CCC(OCCC(=O)N[C@H](C(=O)N2C[C@H](O)C[C@H]2C(=O)NCc2ccc(-c3scnc3C)cc2)C(C)(C)C)CC1 [TPD5412]
2 | > 85 | ≤ 100 | ≤ 100 | COc1cc2c(Oc3ccc(NC(=O)C4(C(=O)Nc5ccc(F)cc5)CC4)cc3)ccnc2cc1N1CCC(CN2C[C@H]3C[C@@H]2CN3CC(=O)Nc2cc3c(cn2)C(=O)N(C2CCC(=O)NC2=O)C3)CC1 (stereo partly drawn) [TPD12101]
3 | 65 to 75 | ≤ 100 | ≤ 100 | COc1cc2c(Oc3ccc(NC(=O)C4(C(=O)Nc5ccc(F)cc5)CC4)cc3)ccnc2cc1N1CCC(CC(=O)N[C@H](C(=O)N2C[C@H](O)C[C@H]2C(=O)NCc2ccc(-c3scnc3C)cc2)C(C)(C)C)CC1 [TPD5410]
4 | 65 to 75 | ≤ 100 | 100 to 500 | COc1cc2c(Oc3ccc(NC(=O)C4(C(=O)Nc5ccc(F)cc5)CC4)cc3)ccnc2cc1NC(=O)c1cnc(N2CCC(CN3CCN(c4ccc5c(c4)C(=O)N(C4CCC(=O)NC4=O)C5=O)CC3)CC2)nn1 (stereo not drawn) [TPD5714]
5 | 65 to 75 | 100 to 500 | 100 to 500 | COc1cc2c(Oc3ccc(NC(=O)C4(C(=O)Nc5ccc(F)cc5)CC4)cc3)ccnc2cc1N1CCC(C(=O)N2CCC(C(=O)N[C@H](C(=O)N3C[C@H](O)C[C@H]3C(=O)NCc3ccc(-c4scnc4C)cc3)C(C)(C)C)CC2)CC1 [TPD5436]
6 | 65 to 75 | 1000 to 3000 | 1000 to 3000 | COc1cc2c(Oc3ccc(NC(=O)C4(C(=O)Nc5ccc(F)cc5)CC4)cc3)ccnc2cc1N1CCC(CN2CC(C(=O)N3C[C@H](O)C[C@H]3C(=O)NCc3ccc(-c4scnc4C)cc3)C2)CC1 [TPD5430]
7 | > 85 | ≤ 100 | ≤ 100 | COc1cc2c(Oc3ccc(NC(=O)C4(C(=O)Nc5ccc(F)cc5)CC4)cc3)ccnc2cc1N1CCC(CN2CCN(CC(=O)Nc3cccc4c3CN(C3CCC(=O)NC3=O)C4=O)CC2)CC1 (stereo not drawn) [TPD5901]
8 | 75 to 85 | 500 to 1000 | 1000 to 3000 | COc1cc2c(Oc3ccc(NC(=O)C4(C(=O)Nc5ccc(F)cc5)CC4)cc3)ccnc2cc1-c1cnn(C2CCN(C(=O)CCCCC(=O)N[C@H](C(=O)N3C[C@H](O)C[C@H]3C(=O)NCc3ccc(-c4scnc4C)cc3)C(C)(C)C)CC2)c1 [TPD5505]
9 | 75 to 85 | 500 to 1000 | 100 to 500 | COc1cc2c(Oc3ccc(NC(=O)C4(C(=O)Nc5ccc(F)cc5)CC4)cc3)ccnc2cc1NC(=O)CN1CCN(CC2CCN(c3ccc4c(c3)C(=O)N(C3CCC(=O)NC3=O)C4=O)CC2)CC1 (stereo not drawn) [TPD5746]

Row | Structure (SMILES) | Dmax (DDR1) [%] | IC50 (SNU5) [nM] | IC50 (MKN45) [nM]
10 | COc1cc2c(Oc3ccc(NC(=O)C4(C(=O)Nc5ccc(F)cc5)CC4)cc3)ccnc2cc1N1CCC(CN2CCN(CCNc3ccc4c(n3)C(=O)N(C3CCC(=O)NC3=O)C4)CC2)CC1 (stereo not drawn) [TPD12013] | > 85 | 100 to 500 | 100 to 500
11 | COc1cc2c(Oc3ccc(NC(=O)C4(C(=O)Nc5ccc(F)cc5)CC4)cc3)ccnc2cc1N1CCC(CN2CCN(CCNc3cc4c(cn3)C(=O)N(C3CCC(=O)NC3=O)C4)CC2)CC1 (stereo not drawn) [TPD12003] | 75 to 85 | ≤ 100 | ≤ 100
12 | COc1cc2c(Oc3ccc(NC(=O)C4(C(=O)Nc5ccc(F)cc5)CC4)cc3)ccnc2cc1N1CCC(CN2C3CC2CN(CCNc2cc4c(cn2)C(=O)N(C2CCC(=O)NC2=O)C4)C3)CC1 (stereo not drawn) [TPD12081] | 75 to 85 | ≤ 100 | ≤ 100
13 | O=C1CCC(N2Cc3c(C#CCCN4CC5CC(C4)N5CC4CCN(c5cc6nccc(Oc7ccc(NC(=O)C8(C(=O)Nc9ccc(F)cc9)CC8)cc7)c6cc5F)CC4)cccc3C2=O)C(=O)N1 (stereo not drawn) [TPD12235] | 65 to 75 | ≤ 100 | ≤ 100
14 | O=C1CCC(N2Cc3cc(NCCN4C5CC4CN(CC4CCN(c6cc7nccc(Oc8ccc(NC(=O)C9(C(=O)Nc%10ccc(F)cc%10)CC9)cc8)c7cc6F)CC4)C5)ncc3C2=O)C(=O)N1 (stereo not drawn) [TPD12086] | 75 to 85 | ≤ 100 | 100 to 500
